What was measured:
M. luteus MTCC 106 = assay: MIC, microtiter plate dilution assay; assay type: cell-based, Micrococcus luteus; conditions: 5 × 10^5 CFU/ml, 37°C, OD600 after 24 h, triplicate
Experimental: (§1) The antimicrobial activity was tested by well diffusion assay as mentioned earlier ([Singh et al., 2014]). Strain A52 was grown for 24 h in 500 ml of nutrient broth (NB, Hi-media, India) using 1000 ml flask and subsequently cells were removed by centrifugation (10,000 rpm for 15 min at 4°C). Supernatant was filtered through 0.22 μm filter (Millipore, United States) to obtain cell-free fermented broth (CFB) that was used for antimicrobial assay (50 μl) against various indicator strains and the activity was measured as diameter of inhibition zone. […]
(§2) The minimum inhibitory concentration (MIC) of HPLC purified peptides was evaluated by using microtiter plate dilution assay. […] OD was measured at 600 nm after 24 and 48 h for bacteria and yeast, respectively, using ELISA microplate reader (Thermo, United States). MIC against phytopathogenic fungi was determined using 96-well microtiter plate assay ([Kaur et al., 2016]). […] The microplates were incubated at 25°C and readings were recorded at 600 nm after 48 h. […]

[1] = pH stability, residual antimicrobial activity; assay type: physicochemical; conditions: for Residual activity (%), pH 2.0: pH 2.0 (10 mM HCl or NaOH)
Experimental: Sensitivity of purified peptides toward temperature, pH, and non-specific proteases was confirmed by performing bioassays. The pH stability was determined by adjusting the pH 2.0–12.0 of peptide aliquots (using 10 mM HCl or NaOH) and incubating for 4 h at room temperature. Samples were neutralized to pH 7.0 before processing for antimicrobial assay. To determine temperature susceptibility, peptides were incubated at different temperatures ranging from 37 to 100°C for 1 h and 121°C for 15 min and residual antimicrobial activity was determined at RT by well diffusion assay. Proteolytic enzymes trypsin and proteinase K (Sigma, United States) were used at three different concentrations (0.1, 1.0, and 5.0 mg/ml) to observe their effect on the peptide. The enzyme solutions were prepared in 50 mM phosphate buffer (pH 7.0). All reactions were performed at 37°C for 6 h followed by deactivation of enzyme by heating the solution in boiling water for 5 min before performing the activity assay.

B. subtilis MTCC 121 = assay: MIC, microtiter plate dilution assay; assay type: cell-based, Bacillus subtilis; conditions: 5 × 10^5 CFU/ml, 37°C, OD600 after 24 h, triplicate
Experimental: as §1, §2

S. aureus MTCC 1430 = assay: In-gel activity assay (Tricine-SDS-PAGE); assay type: cell-based, Staphylococcus aureus; conditions: 16% Tricine-SDS-PAGE, ∼10^6 cells/ml
Experimental: Purified antimicrobial peptides were analyzed on TLC plates (Silica gel 60 F254, Merck, Germany) and used to determine the purity and antimicrobial activity of the compound by bioautographic assay ([Zheng et al., 2005]). About 50–60 μl of the peptide solution (100 μg/ml concentration) was loaded onto individual TLC silica gel plates in duplicates and were developed using a solvent system containing chloroform: […]: water (65:12:4 v/v). Subsequently, each TLC plate was dried, cut into two vertical parts, and one part of the TLC was used for direct detection of antimicrobial activity by overlaying on NA plate containing indicator strain (S. aureus MTCC 1430, ∼10^6 cells/ml). After allowing for 1 h of diffusion at 4°C, the TLC strip was removed and plates were incubated for 24 h at 37°C. The other part of TLC strip (5–10 μl of the peptide solution spot) was sprayed with ninhydrin and phosphomolybdic acid as a staining reagent to detect the presence of peptides and lipid moieties, respectively. Similarly, peptides were electrophoresed on 16% Tricine-SDS-PAGE and used for in-gel activity assay as described earlier ([Baindara et al., 2016]). S. aureus MTCC 1430 (∼10^6 cells/ml) was used as an indicator strain in assay.

## Glu^1-Leu/Ile^2-Leu^3-Val^4-Asp^5-Leu^6-Leu/Ile^7 and a β-OH hexadecane fatty acid chain (lariat or depsi) [Lipopeptide A52, cyclic surfactin-like lipopeptide, 7 amino acids and C16 β-hydroxy fatty acid, 1061.9 Da, from B. subtilis strain A52]
M. luteus MTCC 106
  MIC value, M. luteus MTCC 106: 1 mg/L
[1]; 4h/ 25°C, neutralized to pH 7.0 before antimicrobial assay, listed as Lipopeptide
  Residual activity (%), pH 2.0: Nil
[1]; 4h/ 25°C, neutralized to pH 7.0 before antimicrobial assay, listed as surfactin-like lipopeptide
  Residual activity (%), pH 2.0: complete loss in activity
[1]; pH 4.0 (10 mM HCl or NaOH), 4h/ 25°C, neutralized to pH 7.0 before antimicrobial assay
  Residual activity (%), pH 4.0: 100%
[1]; pH 6.0 (10 mM HCl or NaOH), 4h/ 25°C, neutralized to pH 7.0 before antimicrobial assay
  Residual activity (%), pH 6.0: 100%
[1]; pH 7.0, 4h/ 25°C
  Residual activity (%), pH 7.0: 100%
[1]; pH 8.0 (10 mM HCl or NaOH), 4h/ 25°C, neutralized to pH 7.0 before antimicrobial assay
  Residual activity (%), pH 8.0: 100%
[1]; pH 10.0 (10 mM HCl or NaOH), 4h/ 25°C, neutralized to pH 7.0 before antimicrobial assay
  Residual activity (%), pH 10.0: 100%
[1]; pH 12.0 (10 mM HCl or NaOH), 4h/ 25°C, neutralized to pH 7.0 before antimicrobial assay
  Residual activity (%), pH 12.0: Nil
B. subtilis MTCC 121
  MIC value, B. subtilis MTCC 121: 2 mg/L
S. aureus MTCC 1430
  antimicrobial activity in in-gel assay: No antimicrobial activity was detected
